SMILES strings stand for the structures. Values joined by “and” are separate entries in the source; they are usually repeats but may differ in a detail not shown here. Equal entries are not always repeated.

Test [1] concerns P. falciparum CAM3.II ring stages (0–3 h post invasion). Briefly: Plasmodium falciparum ring stage survival assay, resistant strain. It is filed as cell-based. How it is done:
(§1) Following tight synchronisation using sorbitol and Percoll® floatation, ring stage CAM3.II and CAM3.IIREV parasites (0–3 h post invasion) at 1% parasitaemia and 2% haematocrit were incubated with 700 nM of compounds or solvent-only controls for exactly 6 h, before removing the drug, thoroughly washing in RPMI with HEPES, and returning to culture conditions for a further 66 h. Some cells were treated with 700 nM artesunate for 72 h as a no-growth control. DNA replication (indicating growth) was measured at the specified time using SYBR Safe DNA Stain. Microscope slide smears of each condition were stained with 10% v/v Giemsa and examined under a light microscope (×1000 magnification); with ‘viable’ (morphologically normal) and ‘non-viable’ (morphologically aberrant; vacuolated or pyknotic) parasites distinguished according to standard protocol (Witkowski et al, [2013]). Images were captured using a Leica ICC50 camera, with a resolution of 76 nm per pixel, and cropped from larger images using Fiji ImageJ.
(§2) Appendix Fraser/Curtis et al.
(§3) Cells were detached from a flask using 0.25% Trypsin with 0.2 g/L EDTA (Sigma T4049) and washed with culture media containing no phenol red. Cells were incubated with a serial dilution of each compound, or media/DMSO alone. The protein synthesis inhibitor cycloheximide (Sigma 01810) at 10 µg/mL was used as a positive control to determine background absorbance. 5,000 cells were seeded in each well. After 96 hours, 0.45 mg/mL methylthiazolyldiphenyl-tetrazolium bromide (MTT; Sigma M2128) was added and incubated for a further two hours, before mixing 1.1:1 with 10% w/v sodium dodecyl sulfate (SDS) to solubilise crystals and freezing the plate at -18 °C to stop the assay. Plates were defrosted at room temperature and absorbance was read at 570 nm in an Infinite M1000 pro plate reader […]
(§4) Plasmodium falciparum Ring Stage Survival Assay
(§5) Ring stage survival assays were conducted according to standard protocols with some modifications (27, 28). CAM3.11 and CAM3.11REV parasites were sorbitol synchronised twice, 12 hours apart, and then incubated for a further 30 hours until the majority of the parasites were mature schizonts (with clearly separated nuclei). Pelleted RBCs were incubated at 37 °C with heparinised RPMI for 15 minutes, and then centrifuged over 75% Percoll® in PBS for 15 minutes at 1,000 g. Mature schizonts were collected, washed with warm RPMI, and cultured for exactly three hours with fresh uRBCs and culture media. After 3 hours, the cultures were sorbitol synchronised and incubated in duplicate with 700 nM of artesunate, PAYb076a, GGA5, HJB8a53, a DMSO solvent-only control or media alone for exactly six hours, before removing the drug, washing in RPMI, and returning to culture conditions. Samples of each cell suspension were transferred to a -18 °C freezer at the start of the assay (time = 0) or treated for the entire 72 hours with 700 nM artesunate to determine background fluorescence under no-growth conditions. After a further 66 hours of incubation (totalling 72 hours), cells were […]
(§6) resuspended, and a sample from each well was transferred to a fresh plate and frozen at -18 °C.
(§7) Microscope slide smears were made using the remaining cells and stained with 10% v/v Giemsa. Plates were thawed and SYBR Safe DNA Gel Stain (final concentration 1/10,000) diluted in lysis buffer (as above) was added for DNA detection at 490 nm excitation / 520 nm emission on a FLUOstar Optima fluorescence plate reader. Parasite proliferation and viability were also assessed using Giemsa-stained smears examined under a light microscope (1,000× magnification); with ‘viable’ and ‘non-viable’ (vacuolated or pyknotic) parasites distinguished according to standard protocol. Images were captured using a Leica ICC50 camera, with a resolution of 76 nm per pixel.
(§8) Growth inhibition data were normalised by subtracting background fluorescence, […]

Test [2] concerns P. falciparum CAM3.IIREV ring stages (0–3 h post invasion). Nature of the test: Plasmodium falciparum ring stage survival assay, susceptible revertant strain. It is filed as cell-based. How it is done:
as §1, §2, §3, §4, §5, §6, §7, §8

As to `CC(C)OC(=O)CCC(=O)O[C@H]1CC[C@H]2[C@@H]3CC=C4C[C@@H](O)CC[C@]4(C)[C@H]3CC[C@]12C` [C-17-link], the “Ring stage survival, growth” value in test [1] (700 nM, 6 h treatment, 66 h further growth, CAM3.II resistant) is recorded as “did not significantly impact the growth”; in test [2] (700 nM, 6 h treatment, 66 h further growth, CAM3.IIREV susceptible), “did not significantly impact the growth”. In addition, the “Ring stage survival, individual data points (Figure 4C)” value in test [1] (CAM3.11, replicate experiments, listed as HJB8a53) is 67.82 and 103.7 and 86.39 and 70.09; in test [2] (CAM3.11REV, replicate experiments, listed as HJB8a53), 98.68 and 105.5 and 54.94 and 92.61.

The values are drawn from publication PMC11251039, “Harnessing cholesterol uptake of malaria parasites for therapeutic applications” (EMBO Molecular Medicine, 2024).
